Data on 10 molecules can be found in ChEMBL document CHEMBL1201862, “PubChem BioAssay data set” (2004).

Among the test systems are HCC 2998; A549; RPMI-8226; SK-OV-3; SNB-19; SF-295; OVCAR-8; KM12; M14; NCI-H226; CAKI-1; TK-10; PC-3; COLO 205; SK-MEL-28; SF-539; K562; HCT-116; MOLT-4; SF-268.
Holding throughout (experiment): NCI tumour cell line growth inhibition, 48 h

Molecules are shown by their SMILES.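 Interpolation was linear, between the two tested concentrations surrounding the appropriate level; five concentrations were tested over 48 hours in 96-well plates. GI50 = concentration required for 50% inhibition of growth.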 The source made the active and inactive calls. No stated cut-off is given here; in the data, active = GI50 up to about 1.1 µM and inactive = higher.

As for `COc1ccc(-c2cc(-c3ccc(Nc4ccnc5cc(Cl)ccc45)cc3)[nH]c(=O)c2C#N)c2ccccc12`, the GI50 in the assay on HCC 2998 is 5.51 µM (inactive); in the assay on A549, 18.1 µM (inactive); with RPMI-8226, 2.6 µM (inactive); with SK-OV-3, 20.9 µM (inactive); in the assay on SNB-19, 3.39 µM (inactive); with SF-295 it was 17.7 µM (inactive). The GI50 in the assay with OVCAR-8 was 2.3 µM (inactive); in the assay on KM12, 3.47 µM (inactive); in the assay on M14 it was 2.03 µM (inactive); in the assay with NCI-H226, > 100 µM (inactive); in the assay with CAKI-1 it was 9.46 µM (inactive); with TK-10, 8.63 µM (inactive). Moreover, the GI50 is 19.5 µM (inactive) in the assay with PC-3; 2.44 µM (inactive) with COLO 205; 3.34 µM (inactive) with SK-MEL-28; 1.82 µM (inactive) with SF-539; 2.37 µM (inactive) in the assay on K562; 2.16 µM (inactive) with HCT-116. Besides, the results for the GI50 with MOLT-4 and in the assay with SF-268 were 2.13 µM (inactive) and 12.7 µM (inactive), respectively.
On to `O=C1OC(OC/C(Br)=C(\Br)COC2OC(=O)C(Cl)=C2Cl)C(Cl)=C1Cl` (stereo not given), for which the GI50 in the assay with HCC 2998 is 17.9 µM (inactive); in the assay on A549, 14.9 µM (inactive); with RPMI-8226, 1.08 µM (active); with SK-OV-3, 22.2 µM (inactive); in the assay on SNB-19, 17.1 µM (inactive); in the assay on SF-295, 18.3 µM (inactive). Also, the GI50 is 2.4 µM (inactive) with OVCAR-8; 15.2 µM (inactive) with KM12; 3.66 µM (inactive) in the assay on M14; 12.8 µM (inactive) with NCI-H226; 2.26 µM (inactive) in the assay with CAKI-1; 4.67 µM (inactive) in the assay with TK-10. The GI50 in the assay on PC-3 was 14.1 µM (inactive); in the assay with COLO 205 it was 1.67 µM (inactive); with SK-MEL-28, 7.82 µM (inactive); with SF-539, 6.89 µM (inactive); in the assay with K562, 1.14 µM (inactive); in the assay with HCT-116 it was 1.86 µM (inactive). The GI50 with MOLT-4 is 0.807 µM (active); in the assay on SF-268 it was 8.43 µM (inactive).
`Cc1cc(C)c2c(O)cc(-c3cccc(F)c3)nc2n1`: the GI50 was 0.301 µM (active) with HCC 2998; 0.0847 µM (active) in the assay on A549; 0.139 µM (active) in the assay on RPMI-8226; 0.158 µM (active) with SK-OV-3; 0.136 µM (active) with SNB-19; 0.0348 µM (active) with SF-295. For the same molecule, the GI50 was 0.261 µM (active) in the assay with OVCAR-8; 0.0351 µM (active) in the assay on KM12; 0.0521 µM (active) with M14; 0.168 µM (active) in the assay with NCI-H226; 0.0536 µM (active) in the assay with CAKI-1; 23.7 µM (inactive) in the assay with TK-10. The GI50 with PC-3 is 0.0718 µM (active); in the assay on COLO 205 it was 0.043 µM (active); in the assay on SK-MEL-28, 0.115 µM (active); in the assay on SF-539, 0.0944 µM (active); with K562, < 0.0175 µM (active); in the assay on HCT-116, < 0.0186 µM (active). The values for the GI50 in the assay with MOLT-4 and with SF-268 were 0.22 µM (active) and 1.44 µM (inactive), respectively.
Turning to `Cc1cccc(NC(=O)c2cccc([N+](=O)[O-])c2O)c1C`, the GI50 with HCC 2998 is 28.4 µM (inactive); with A549 it was 21.5 µM (inactive); with RPMI-8226, 3.14 µM (inactive); in the assay on SK-OV-3, 28.4 µM (inactive); with SNB-19, 18.7 µM (inactive); with SF-295, 24.4 µM (inactive). Besides, the GI50 is 33.7 µM (inactive) in the assay with OVCAR-8; 23.6 µM (inactive) in the assay on KM12; 41.5 µM (inactive) in the assay on M14; 22.1 µM (inactive) with NCI-H226; 27.4 µM (inactive) in the assay with CAKI-1; 53.6 µM (inactive) in the assay on TK-10. The GI50 in the assay on PC-3 was 20.2 µM (inactive); with COLO 205, 18.1 µM (inactive); in the assay on SK-MEL-28, 44.5 µM (inactive); with SF-539, 27.5 µM (inactive); with K562 it was 12.1 µM (inactive); in the assay on HCT-116, 28.2 µM (inactive). For the same molecule, the GI50 in the assay on MOLT-4 is 19.4 µM (inactive); in the assay on SF-268 it was 33.2 µM (inactive).
In the case of `CN(C)CC1CC/C(=C\c2ccc3c(c2)OCO3)C1=O` (stereo not given), the GI50 with HCC 2998 was 22.1 µM (inactive); in the assay on A549, 28.2 µM (inactive); in the assay with RPMI-8226 it was 1.85 µM (inactive); in the assay with SK-OV-3, > 43.1 µM (inactive); with SNB-19, 16.2 µM (inactive); with SF-295, 23.1 µM (inactive). Further, the GI50 in the assay on OVCAR-8 is 8.61 µM (inactive); in the assay on KM12 it was 6.79 µM (inactive); in the assay on M14, 7.4 µM (inactive); with NCI-H226, 20.4 µM (inactive); with CAKI-1, 8.89 µM (inactive); in the assay with TK-10, 11.1 µM (inactive). Further, the GI50 in the assay on PC-3 was 13.6 µM (inactive); in the assay with COLO 205, 8.49 µM (inactive); with SK-MEL-28, 10.5 µM (inactive); in the assay with SF-539, 16.3 µM (inactive); in the assay on K562, 2.83 µM (inactive); in the assay on HCT-116, 6.75 µM (inactive). The figures for the GI50 with MOLT-4 and in the assay on SF-268 were 2.98 µM (inactive) and 11.2 µM (inactive), respectively.
On to `CCCCCCCCCCCCN(CC(O)C(O)C(OC1OC(CO)C(O)C(O)C1O)C(O)CO)C(=O)CCCCCCCCCCC` (stereo not given), for which the GI50 was 18.4 µM (inactive) with HCC 2998; 23.6 µM (inactive) in the assay with A549; 29 µM (inactive) in the assay with RPMI-8226; 22.3 µM (inactive) in the assay on SK-OV-3; 17.9 µM (inactive) in the assay on SNB-19; 19 µM (inactive) with SF-295. Besides, the GI50 in the assay with OVCAR-8 was 23 µM (inactive); with KM12, 20.2 µM (inactive); with M14 it was 19.5 µM (inactive); in the assay with NCI-H226 it was 23.4 µM (inactive); in the assay with CAKI-1 it was 19 µM (inactive); in the assay on TK-10, 16.3 µM (inactive). Further, the GI50 in the assay with PC-3 was 25.2 µM (inactive); with COLO 205, 20.4 µM (inactive); in the assay with SK-MEL-28 it was 17.5 µM (inactive); in the assay on SF-539, 39.8 µM (inactive); in the assay with K562 it was 19 µM (inactive); in the assay with HCT-116 it was 19.5 µM (inactive). Moreover, the GI50 with MOLT-4 was 25.1 µM (inactive); with SF-268 it was 20.1 µM (inactive).
As to `N#Cc1ccc(C2ON=C(c3ccccc3)N2C23CC4CC(CC(C4)C2)C3)cc1` (stereo not given), the GI50 in the assay on HCC 2998 was > 10 µM (inactive); with A549 it was > 10 µM (inactive); in the assay with RPMI-8226, 6.19 µM (inactive); with SK-OV-3 it was > 10 µM (inactive); with SNB-19, > 10 µM (inactive); with SF-295, > 10 µM (inactive). Moreover, the GI50 in the assay on OVCAR-8 was > 10 µM (inactive); with KM12, > 10 µM (inactive); in the assay with M14, > 10 µM (inactive); with NCI-H226, 6.76 µM (inactive); in the assay on CAKI-1, > 10 µM (inactive); with TK-10 it was > 10 µM (inactive). In addition, the GI50 was 7.98 µM (inactive) with PC-3; > 10 µM (inactive) in the assay with COLO 205; > 10 µM (inactive) in the assay on SK-MEL-28; > 10 µM (inactive) with SF-539; > 10 µM (inactive) in the assay on K562; > 10 µM (inactive) in the assay on HCT-116. Further, the GI50 with MOLT-4 was 9.66 µM (inactive); with SF-268 it was > 10 µM (inactive).
`COC(=O)c1ccccc1CC1Cc2ccc3c(c2C1=O)CCCC3` (stereo not given): the GI50 with HCC 2998 was 44.3 µM (inactive); in the assay on A549, 34.3 µM (inactive); with RPMI-8226 it was 19.2 µM (inactive); with SK-OV-3, > 95.9 µM (inactive); in the assay on SNB-19, 87.7 µM (inactive); in the assay on SF-295, 32 µM (inactive). Further, the GI50 with OVCAR-8 was 43.3 µM (inactive); in the assay with KM12, 46.2 µM (inactive); in the assay on M14, 49 µM (inactive); in the assay with NCI-H226 it was 60.1 µM (inactive); in the assay on CAKI-1, 24 µM (inactive); in the assay on TK-10, 51.4 µM (inactive). Moreover, the GI50 with PC-3 is 23.7 µM (inactive); in the assay on COLO 205 it was 34 µM (inactive); with SK-MEL-28, 64.9 µM (inactive); in the assay on SF-539 it was 62.1 µM (inactive); in the assay with K562, 17 µM (inactive); in the assay with HCT-116, 29.2 µM (inactive). In addition, the GI50 is 10.4 µM (inactive) in the assay on MOLT-4 and 75.5 µM (inactive) with SF-268.
In the case of `CC1=CC(=O)C(C(O)(C(F)(F)F)C(F)(F)F)C(C)(C)C1` (stereo not given), the GI50 in the assay on HCC 2998, in the assay on A549, with RPMI-8226, in the assay with SK-OV-3, in the assay with SNB-19 and with SF-295 was > 10 µM (inactive) each time. In addition, the GI50 in the assay with OVCAR-8, in the assay on KM12, in the assay on M14, in the assay with NCI-H226, in the assay with CAKI-1 and in the assay on TK-10 was > 10 µM (inactive) in each case. In addition, the GI50 in the assay on PC-3, with COLO 205, in the assay with SK-MEL-28, in the assay with SF-539, in the assay on K562 and in the assay with HCT-116 was > 10 µM (inactive) in each case. Further, the GI50 in the assay on MOLT-4 and in the assay with SF-268 was > 10 µM (inactive) in each case.
Consider `Nc1nc(N)c2cc(-c3ccccc3)cnc2n1`, for which the GI50 is 33 µM (inactive) in the assay with HCC 2998; 9.44 µM (inactive) with A549; 16.6 µM (inactive) with RPMI-8226; 81.1 µM (inactive) with SK-OV-3; 18.2 µM (inactive) in the assay on SNB-19; 17 µM (inactive) with SF-295. The GI50 in the assay on OVCAR-8 is 15.4 µM (inactive); with KM12, 16.5 µM (inactive); with M14, 12.9 µM (inactive); in the assay on NCI-H226, 16.5 µM (inactive); in the assay with CAKI-1 it was 16 µM (inactive); with TK-10, 16.3 µM (inactive). In addition, the GI50 in the assay on PC-3 is 8 µM (inactive); in the assay with COLO 205, 14.3 µM (inactive); with SK-MEL-28 it was 17.7 µM (inactive); in the assay with SF-539, 14.7 µM (inactive); in the assay on K562, 3.36 µM (inactive); in the assay on HCT-116, 4.66 µM (inactive). The GI50 in the assay on MOLT-4 is 9.89 µM (inactive); with SF-268 it was 2.75 µM (inactive).
